Measured values as given in publication PMC11660961, “Leucinostatins target Plasmodium mitochondria to block malaria transmission” (Parasites & Vectors, 2024).
pIC50: −log10 of the molar value. “Also recorded” adds a separate entry of the source. *1 amine or outer side, *2 acyl side, *3 side chain or, on linkers, in order; H or OH if unused. Where a SMILES comes first, the peptide text is derived from it. [ ]: non-standard residue; d: D form. The star is where a group is joined. X3 = C[C@@H](CN(C)C(=O)CCCCCNC(=O)CCCC[C@@H]1SC[C@@H]2NC(=O)N[C@@H]21)N*; X2 = C[C@@H](CN(C)C(=O)CCC[n+]1c2cc(N(C)C)ccc2cc2ccc(N(C)C)cc21)N*; X1 = CCC(=O)C[C@H](O)C[C@@H](C)C[C@H](N[*:1])C(=O)[*:2]; Hexenoyl(2E,4S-Me) = CC[C@H](C)/C=C/C(=O)*; Leu(3R-OH) = CC(C)[C@@H](O)[C@H](N)C(=O)O; NH((S)CH(Me)CH2NMe2) = C[C@@H](CN(C)C)N*; Pro(4S-Me) = C[C@@H]1CN[C@H](C(=O)O)C1; NH((S)CH(CH3)CH2NHMe) = CNC[C@H](C)N*; Aib = CC(C)(N)C(=O)O; βAla = NCCC(=O)O

How the values were obtained:
[1] = Reverse-phase C18 HPLC elution time as measure of hydrophobicity; type: physicochemical; details: chromatographic; semi-prep C18 column (Gemini 5 μm 110A, 250 × 10 mm), gradient 50% methanol to 100% methanol in 50 min, 1 ml per min, A254; approximate time
Procedure: LA and LB were purified from P. lilacum as described. LA/LB mixture (Sigma) was also purchased from Sigma. LB C-terminus were modified by linking biotin and Atto495. Around 0.4 µmol of LB and 8 µmol of amine-reactive EZ-Link™ NHS-LC-Biotin (Invitrogen; molar ratio: 1:20) were mixed in 2 mL of PBS buffer (pH = 7.2) and reacted for continuous stirring 4 h at room temperature. Then, the reaction sample was analyzed and purified by semi-prep high-performance liquid chromatography (HPLC; Shimadzu) C18 column (Gemini 5 μm 110A, 250 × 10 mm) with gradient elution of 50% methanol to 100% methanol in 50 min. The flow rate was 1 ml per min. The LB-biotin conjugate fraction was dried at room temperature with a rotary vacuum evaporator (Heidolph).
The reaction of LB with amine-reactive Atto495 NHS ester (Sigma) was conducted in DMSO. Firstly, Atto495 NHS ester (3 mM), LB (1 mM), and triethylamine (100 mM) were mixed in DMSO in a 0.2 mL reaction volume and reacted at room temperature for 4 h with continuous stirring while protected from light. The reaction solution was applied to semi-prep HPLC to obtain the conjugate of LB-Atto495 as described above, and the LB-Atto495 was dried for use.
The pure LB was reacted with amine-reactive Atto495 NHS ester in DMSO. The reaction solution was applied to semi-prep HPLC. The conjugate of LB-Atto495 was eluded at 29 min (Fig. 2b). […] On the basis of elution times from the HPLC C18 column, the hydrophobicity of four compounds is LB < LA < LB-Atto495 < LB-biotin.

[2] = Cytotoxicity assay, MTT, HEK293; type: cell-based, human; details: 24 h incubation at 37 °C, three replicates
Procedure: (§1) Two methods and two types of cells were used to analyze the general cytotoxicity of small molecules. First, MTT (3-(4,5-dimethylthiazol-2-yl)-2,5-diphenyl tetrazolium bromide; Thermo-fisher) and human embryonic kidney 293 (HEK293) were used in cytotoxicity assays. About 20,000 HEK293 cells in 200 µl of culture medium [Dulbecco’s modified eagle medium (DMEM) with high glutamine and 10% fetal bovine serum] were seeded per well in 96-well microplates. About 1 µl of the compounds in DMSO at various dilutions was added into each well to obtain final concentrations of 0, 10, 100, and 1000 ng/mL. Three replicates were conducted for each concentration. Following incubation at 37 °C with 5% CO2 for 24 h, 10 µL of MTT (5 mg/mL in PBS) was added to each well and incubated for 4 h at 37 °C with 5% CO2. All but 25 µL of the medium was removed from the wells, and 100 µL of DMSO was added to each well and incubated at 37 °C for 10 min to dissolve formazan crystals for measurement. Optical density was measured at an absorbance wavelength of 540 nm.

[3] = test system: human embryonic kidney 293 (HEK293) cells; assay: Cytotoxicity assay, MTT, HEK293; type: cell-based
Procedure: as §1

[4] = test system: K562 cell line (human immortalized myelogenous leukemia cell); assay: Cell proliferation assay, CCK-8 kit, K562; type: cell-based
Procedure: Second, the CCK-8 kit (Sigma) and K562 cell line (human immortalized myelogenous leukemia cell) were used to determine the inhibition of a compound against cell proliferation. About 20,000 cells in 200 µl of culture medium (RMPI-1640 with 10% fetal bovine serum) were seeded per well in 96-well microplates, and then a series of dilutions of the compound from 0 to 1000 ng/ml was added to the medium. The cells were maintained at 37 °C and 5% CO2 for 48 h, and then 20 μl of the CCK-8 solution was added to each well of the plate. The plate was incubated for 1 h, and the A450 was measured using a microplate.

[5] = test system: O+ human red blood cells; assay: Hemolysis assay; type: cell-based; details: 100 µM, 10% human RBC suspension in PBS pH 7.4, 3 h at 37 °C, A540, triplicate, p > 0.9
Procedure: About 200 µL of O + human red blood cells were washed three times in PBS (pH 7.4) and then suspended with 1 ml of PBS. Then, 0.3 ml of suspension was diluted with 3 mL of PBS to obtain a 10% suspension. All tested compounds were dissolved in DMSO to prepare a series of dilutions of 1 nM, 10 nM, 100 nM, 1 µM, 10 µM, and 100 µM. The erythrocyte suspension (100 μl per well) was added to a 96-well plate, and the samples were rapidly stirred and incubated at 37 °C with periodic stirring during a 3-h incubation period. The solution was then centrifuged at 2,000 rpm for 5 min. The absorbance of the supernatant was measured at 540 nm using a microplate, and the hemolytic ratio (%) was calculated by comparison with the 100% hemolytic activity caused by distilled water as maximal hemolytic control. The hemolytic % developed by the PBS control was subtracted from all groups. Each experiment was performed in triplicate.

[6] = test system: Hela cells; details: read-out: IC50 against Hela cells; cited from earlier work
Procedure: Leucinostatins have antimicrobial activity against gram-positive bacteria, including Staphylococcus albus, Bacillus subtilis, Sarcina letter, Streptococcus pyrogens, Streptococcus faecalis, and Mycobacterium species, with IC50 values ranging from 2.5 to 100 μM and against some fungal strains with minimal inhibitory concentrations of 10–25 μM [9–11]. In addition, leucinostatins are known as mycotoxins. The IC50 of leucinostatin Α (LA) to MRC-5 (human fetal lung fibroblast cells) is 2 μΜ [12]. […] The IC50 of LA against H ...

[7] = test system: mice; parameters: method as in 2 sources, ref 9 = [9]; PMID 4783199; doi:10.7164/antibiotics.26.157; 9. Arai T Mikami Y Fukushima K Utsumi T Yazawa K A new antibiotic, leucinostatin, derived from Penicillium lilacinum J Antibiot (Tokyo) 1973 26 157 161 10.7164/antibiotics.26.157 4783199 Arai T, Mikam ||| ref 10 (Mikami et al.); details: intraperitoneal injection; cited from earlier work
[8] = test system: P. falciparum transmission to mosquitoes; assay: Standard membrane feeding assay (SMFA), malaria transmission-blocking activity; type: in vivo, Plasmodium falciparum (NF54) in Anopheles gambiae (G3); details: same set of cultured parasites and mosquitoes, Fig. 3d
Procedure: As we described previously, we maintained An. gambiae (G3 strain) at 27 °C with 80% humidity and a 12 h day/night cycle. Larvae were fed fish food for koi, adult mosquitoes were maintained with 10% sugar in water, and female mosquitoes were fed with purchased human blood to lay eggs. Eggs were collected 48 h after blood-feeding with wet filter papers and hatched in pure water.
P. falciparum (NF54) was cultured in the lab with 4% O + -type red blood cells in a complete Roswell Park Memorial Institute (RPMI) 1640 medium with 10% human AB + serum and 12.5 μg/ml of hypoxanthine in a candle jar at 37 °C. Then, 15-day-old cultured P. falciparum-infected cells were collected through centrifugation (300 g for 3 min), and about 100 μl of pellet were resuspended in 1.5 ml fresh AB + -type serum and mixed with 1.4 ml O + -type red blood cells, containing about 0.2% stage V gametocytes. Each candidate compound was dissolved in dimethylsulfoxide (DMSO) and diluted with DMSO to obtain different concentrations. About 2 μl of candidate solution was mixed with 298 μl of P. falciparum-infected blood prepared above and was used to feed 60–80 3–5-day-old An. gambiae with feeders covered with parafilm at 37 °C for 30 min. […] The midguts were stained with 0.1% mercury dibromofluorescein disodium salt in phosphate-buffered saline (PBS), and the oocysts were counted under a light microscope.

[9] = test system: P. falciparum gametocytes; assay: Distribution of LB-Atto495 in live gametocytes by fluorescence microscopy; type: cell-based, Plasmodium falciparum; details: LB-Atto495 (1 µl of 1 mM in 100 µl) incubated 6 h at room temperature, fluorescent microscope
Procedure: The 15-day-old cultured P. falciparum was collected from a six-well plate. After centrifugation (300 g for 3 min), the cells were washed with 1 ml of PBS three times at room temperature. About 10 μl of cells was suspended in 100 μl of PBS, and 1 μl of LB-Atto495 (1 mM in DMSO) was added and mixed. The cells were incubated at room temperature in the dark for 6 h. The mixture was centrifuged at 300 g for 3 min to collect cells, which were washed three times with 200 μl of PBS. Finally, the cells were deposited on slides to make a blood smear and fixed with methanol. The vector shield antifade mounting medium for fluorescence (VectorLabs, CA) was dropped on the slides. The slides were covered with coverslips and examined under a fluorescent microscope (Nikon Eclipse Ti-S).

## CCC(=O)C[C@H](O)C[C@@H](C)C[C@H](NC(=O)[C@@H]1C[C@H](C)CN1C(=O)/C=C/[C@@H](C)CC)C(=O)N[C@H](C(=O)NC(C)(C)C(=O)N[C@@H](CC(C)C)C(=O)N[C@@H](CC(C)C)C(=O)NC(C)(C)C(=O)NC(C)(C)C(=O)NCCC(=O)N[C@@H](C)CN(C)C)[C@H](O)C(C)C [LA, leucinostatin A] ({Hexenoyl(2E,4S-Me)}-[Pro(4S-Me)][X1][Leu(3R-OH)][Aib]LL[Aib][Aib][βAla]-{NH((S)CH(Me)CH2NMe2)})
[1]
  HPLC elution time (hydrophobicity): ~28.3 min
[2]
  pIC50: 7.05
[3]; 10 ng/mL, p > 0.7
  Density of living cells versus 0 control, HEK293: no significant difference
[3]; 100 nM, 24 h
  Reduction of cell proliferation, HEK293: 38%
[4]; 10 ng/mL, CCK-8, p > 0.6
  Density of living cells versus 0 control, K562: no significant difference
[4]; 100 nM, CCK-8, 48 h
  Reduction of cell proliferation, K562: 43.7%
[5]
  Hemolysis of red blood cells: not significantly different
[5]; listed as leucinostatin A
  Hemolysis of red blood cells: did not lyse erythrocytes
[6]
  pIC50: ~7.40
[7]
  LD50: 1.6 mg/kg

## CCC(=O)C[C@H](O)C[C@@H](C)C[C@H](NC(=O)[C@@H]1C[C@H](C)CN1C(=O)/C=C/[C@@H](C)CC)C(=O)N[C@H](C(=O)NC(C)(C)C(=O)N[C@@H](CC(C)C)C(=O)N[C@@H](CC(C)C)C(=O)NC(C)(C)C(=O)NC(C)(C)C(=O)NCCC(=O)N[C@@H](C)CNC)[C@H](O)C(C)C [LB, leucinostatin B] ({Hexenoyl(2E,4S-Me)}-[Pro(4S-Me)][X1][Leu(3R-OH)][Aib]LL[Aib][Aib][βAla]-{NH((S)CH(CH3)CH2NHMe)})
[8]
  Blocking of P. falciparum transmission to mosquitoes at 10 nM: completely blocked
[1]
  HPLC elution time (hydrophobicity): ~27.5 min

## CCC(=O)C[C@H](O)C[C@@H](C)C[C@H](NC(=O)[C@@H]1C[C@H](C)CN1C(=O)/C=C/[C@@H](C)CC)C(=O)N[C@H](C(=O)NC(C)(C)C(=O)N[C@@H](CC(C)C)C(=O)N[C@@H](CC(C)C)C(=O)NC(C)(C)C(=O)NC(C)(C)C(=O)NCCC(=O)N[C@@H](C)CN(C)C(=O)CCC[n+]1c2cc(N(C)C)ccc2cc2ccc(N(C)C)cc21)[C@H](O)C(C)C [LB-Atto495] ({Hexenoyl(2E,4S-Me)}-[Pro(4S-Me)][X1][Leu(3R-OH)][Aib]LL[Aib][Aib][βAla]-X2)
[1]
  HPLC elution time (hydrophobicity): 29 min
[9]
  Location in live P. falciparum gametocytes: colocalized with mitochondria; also recorded: binds mitochondria specifically in parasites

## CCC(=O)C[C@H](O)C[C@@H](C)C[C@H](NC(=O)[C@@H]1C[C@H](C)CN1C(=O)/C=C/[C@@H](C)CC)C(=O)N[C@H](C(=O)NC(C)(C)C(=O)N[C@@H](CC(C)C)C(=O)N[C@@H](CC(C)C)C(=O)NC(C)(C)C(=O)NC(C)(C)C(=O)NCCC(=O)N[C@@H](C)CN(C)C(=O)CCCCCNC(=O)CCCC[C@@H]1SC[C@@H]2NC(=O)N[C@@H]21)[C@H](O)C(C)C [LB-biotin] ({Hexenoyl(2E,4S-Me)}-[Pro(4S-Me)][X1][Leu(3R-OH)][Aib]LL[Aib][Aib][βAla]-X3)
[8]
  Blocking of P. falciparum transmission to mosquitoes at 10 nM: did not inhibit
[1]
  HPLC elution time (hydrophobicity): ~31.5 min

## O=C(CCCC[C@@H]1SC[C@@H]2NC(=O)N[C@@H]21)NCCCCCC(=O)ON1C(=O)CC(S(=O)(=O)[O-])C1=O.[Na+] (some centres unmarked) [sulfo-NHS-LC-Biotin]
[1]
  HPLC elution time (hydrophobicity): ~16.5 min
